Tests used:
[1] = tested on: ovariectomized SD rats (rat osteoporosis model), femora; assay: Animal efficacy test of increasing bone density and preventing osteoporosis (ovariectomized rat osteoporosis model); format: in vivo; conditions: left femora, 0.1 mg/100 g per day oral gavage, three months, N = 12, x ± s.d.
[2] = Observation of the general state and body weight in ovariectomized rats; format: in vivo, SD rats; conditions: daily observation

CCCCC(=O)O[C@H]1CC[C@H]2[C@@H]3CCc4cc(O)ccc4[C@H]3CC[C@]12C [positive control, estradiol valerate]
bone calcium content [1]: 178.2 ± 29.3 mg/g
bone density BMD [1]: 0.207 ± 0.010 g/mL
general state (exterior signs, behaviors, fecal property) compared with the model control group [2]: did not have significant difference in terms of exterior signs, behaviors, fecal property

Reference: patent publication US20170014462A1, “BONE AND JOINT PROTECTION COMPOSITION AND USE THEREOF” (INFINITUS (CHINA) COMPANY LTD., priority 2015, published 2017)
